Earlier results on 78 compounds are cited in publication PMC6311893, “Computational prediction of plasma protein binding of cyclic peptides from small molecule experimental data using sparse modeling techniques” (BMC Bioinformatics, 2018).

Like-named read-outs stand apart in the source and are kept apart here.

This data set relates to plasma protein. As to conditions: cited from earlier work.
[1] abbreviates: fraction bound to plasma protein, small molecule dataset, sheet 1-SM (Set Dte = test, Dtr = training), ref Ingle et al.
[2] abbreviates: fraction bound to plasma protein, small molecule dataset, sheet 1-SM, Set Dtr, ref Ingle et al.
Where [3] appears, read: fraction bound to plasma protein, small molecule dataset, sheet 1-SM, ref Ingle et al.

Take `CC(C)NCC(O)COc1ccc(COCCOC(C)C)cc1` (stereo not drawn) [Bisoprolol]: the “PPB (fb)” value under setting [1] is 0.32.
Regarding `Cc1cccc(C)c1OCC(C)N` (stereo not drawn) [Mexiletine], under setting [2], the “PPB (fb)” value is 0.63.
For the compound `CC(Oc1cccc(F)c1)C(=O)NC1C(=O)N2C1SC(C)(C)C2C(=O)O` (stereo not drawn) [penicillin61], under setting [3], the “PPB (fb)” value is 0.84.
As for `O=C(C[S+]([O-])C(c1ccccc1)c1ccccc1)NO` (stereo not drawn) [adrafinil], the “PPB (fb)” value (plasma) is given as 0.8.
Consider `C[C@@](Cc1ccc(O)c(O)c1)(NN)C(=O)O` [carbidopa], for which the “PPB (fb)” value under setting [1] was 0.36.
Turning to `Nc1cc(-c2ccncc2)c[nH]c1=O` [Amrinone], the “PPB (fb)” value under setting [2] is listed as 0.11.
With `C[C@]12CCC(=O)C=C1C=C[C@@H]1[C@@H]2CC[C@@]2(C)[C@H]1CC[C@@]2(O)CCC(=O)O` [canrenoate], under setting [1], the “PPB (fb)” value is reported as 0.94.
Take `CN1CCN2c3ccccc3Cc3ccccc3C2C1` (stereo not drawn) [mianserin]: under setting [3], the “PPB (fb)” value is recorded as 0.93.
For the compound `N[C@@H]1CN(c2c(F)cc3c(=O)c(C(=O)O)cn([C@@H]4C[C@@H]4F)c3c2Cl)CC12CC2` [Sitafloxacin], under setting [1], the “PPB (fb)” value was 0.49.
In the case of `C=C[C@H]1C[N@@]2CC[C@H]1C[C@H]2[C@H](O)c1ccnc2ccc(OC)cc12` [Quinine], under setting [2], the “PPB (fb)” value is given as 0.81.
As to `CC1(C)S[C@@H]2[C@H](NC(=O)COc3ccccc3)C(=O)N2[C@H]1C(=O)O` [Phenoxymethylpenicillin], under setting [1], the “PPB (fb)” value is 0.67.
Take `CC(C)(O)C(=O)Nc1ccc([N+](=O)[O-])c(C(F)(F)F)c1` [hydroxyflutamide]: the “PPB (fb)” value under setting [3] is given as 0.93.
Turning to `Cc1cccc([C@H](C)c2cnc[nH]2)c1C` [Dexmedetomidine], the “PPB (fb)” value under setting [2] is recorded as 0.94.
With `O=C(O)[C@@H]1C[C@@H](C2CCCCC2)CN1C(=O)CP(=O)(O)CCCCc1ccccc1` [Fosinoprilat], the “PPB (fb)” value under setting [1] is given as 0.99.
For `OCc1cc(C(O)CNCCCCCCOCCCCc2ccccc2)ccc1O` (stereo not drawn) [salmeterol], the “PPB (fb)” value under setting [3] is 0.96.
As for `COC(C(=O)NC1C(=O)N2C1SC(C)(C)C2C(=O)O)c1cccc(Br)c1` (stereo not drawn) [penicillin39], the “PPB (fb)” value under setting [3] is 0.88.
Take `O=C1CN=C(c2ccccc2Cl)c2cc(Cl)ccc2N1` [Delorazepam (Chlordesmethyldiazepam)]: the “PPB (fb)” value (plasma) is reported as 0.95.
In the case of `CC(=O)CCCCn1c(=O)c2c(ncn2C)n(C)c1=O` [pentoxifylline], the “PPB (fb)” value under setting [3] is given as 0.
With `CCc1cc2c(s1)-n1c(C)nnc1CN=C2c1ccccc1Cl` [etizolam], where the note is “plasma”, the “PPB (fb)” value is 0.93.
`CC1(C)SC2C(NC(=O)C(N=[N+]=[N-])c3ccccc3)C(=O)N2C1C(=O)O` (stereo not drawn) [azidocillin]: the “PPB (fb)” value under setting [1] was 0.8.
As for `Cc1ccccc1-n1cc(C(=O)O)c(=O)c2cc(F)c(N3CCNCC3)cc21` [4a(o-CH3)], the “PPB (fb)” value under setting [1] is 0.37.
Take `Cc1ccc(N(CC2=NCCN2)c2cccc(O)c2)cc1` [phentolamine]: the “PPB (fb)” value under setting [3] was 0.54.
Take `C[C@H](N[C@@H](CCc1ccccc1)C(=O)O)C(=O)N1[C@H](C(=O)O)C[C@H]2CCCC[C@@H]21` [trandolaprilat]: the “PPB (fb)” value under setting [2] is listed as 0.94.
As for `CC(=O)N[C@H]1[C@H]([C@H](O)[C@H](O)CO)OC(C(=O)O)=C[C@@H]1N=C(N)N` [Zanamivir], under setting [3], the “PPB (fb)” value is recorded as 0.09.
`OCCN(CCO)c1nc(N2CCCCC2)c2nc(N(CCO)CCO)nc(N3CCCCC3)c2n1` [dipyridamole]: under setting [1], the “PPB (fb)” value is on record as 0.99.
With `O=C(O)Cc1ccccc1Nc1c(Cl)cccc1Cl` [diclofenac acid], the “PPB (fb)” value under setting [1] is 0.99.
With `CC1=C(C/C=C(\C)CCCC(C)CCCC(C)CCCC(C)C)C(=O)c2ccccc2C1=O` (stereo not drawn) [vitamin-K], the “PPB (fb)” value under setting [2] is 0.9.
As to `NC[C@H](O)c1ccc(O)c(O)c1` [norepinephrine], under setting [3], the “PPB (fb)” value is 0.5.
As for `CC1(C)O[C@@H]2C[C@H]3[C@@H]4C[C@H](F)C5=CC(=O)C=C[C@]5(C)[C@H]4[C@@H](O)C[C@]3(C)[C@]2(C(=O)CO)O1` [flunisolide], the “PPB (fb)” value under setting [1] is listed as 0.5.
For the compound `Nc1ccc(O)c(C(=O)O)c1` [mesalamine], the “PPB (fb)” value under setting [3] is reported as 0.45.
Turning to `CCn1cc(C(=O)O)c(=O)c2cc(F)c(N3CCNCC3)cc21` [norfloxacin], under setting [3], the “PPB (fb)” value was 0.15.
`CC(CC1c2ccccc2CCc2ccccc21)CN(C)C` (stereo not drawn) [butriptyline]: the “PPB (fb)” value under setting [1] is reported as 0.95.
On to `OC[C@H]1OC(O)[C@H](O)[C@@H](O)[C@@H]1O` (stereo partly drawn) [dextrose], for which the “PPB (fb)” value under setting [1] was 0.3.
Turning to `C=CCc1ccccc1OCC(O)CNC(C)C` (stereo not drawn) [Alprenolol], the “PPB (fb)” value under setting [2] is given as 0.81.
As for `O=c1c(O)c(-c2ccc(O)c(O)c2)oc2cc(O)cc(O)c12` [Quercetin], the “PPB (fb)” value under setting [2] was 0.99.
Turning to `C#CCCCC(=O)c1cc(C(C)(C)C)c(O)c(C(C)(C)C)c1` [tebufelone], the “PPB (fb)” value under setting [3] is 0.99.
As to `COC(C(=O)NC1C(=O)N2C1SC(C)(C)C2C(=O)O)c1cc(Cl)c(Cl)c(Cl)c1` (stereo not drawn) [penicillin43], the “PPB (fb)” value under setting [3] was 0.96.
Take `CC(=O)/N=c1/sc(S(N)(=O)=O)nn1C` [methazolamide]: under setting [3], the “PPB (fb)” value is given as 0.55.
Consider Isradipine, for which, where the note is “plasma”, the “PPB (fb)” value was 0.95.
`CC(C)=CCC1C(=O)N(c2ccccc2)N(c2ccccc2)C1=O` [feprazone]: the “PPB (fb)” value under setting [3] is given as 0.95.
Take manidipine: the “PPB (fb)” value (plasma) was 0.99.
Take `CC[C@@H](CO)NC(=O)[C@@H]1C=C2c3cccc4c3c(cn4C)C[C@H]2N(C)C1` [methysergide]: the “PPB (fb)” value (plasma) is on record as 0.66.
Consider `NC(=O)N1c2ccccc2CC(=O)c2ccccc21` [oxcarbazepine], for which the “PPB (fb)” value under setting [3] was 0.45.
For the compound `CC(C)c1cccc(C(C)C)c1O` [Propofol], the “PPB (fb)” value (plasma) is on record as 0.98.
As for `Cc1nc2ccc(CN(C)c3ccc(C(=O)N[C@@H](CCC(=O)O)C(=O)O)s3)cc2c(=O)[nH]1` [raltitrexed], under setting [3], the “PPB (fb)” value is reported as 0.93.
As for `CN(CCCN1c2ccccc2CCc2ccccc21)CC(=O)c1ccc(Cl)cc1` [lofepramine], under setting [3], the “PPB (fb)” value was 0.99.
As to `COC(C(=O)NC1C(=O)N2C1SC(C)(C)C2C(=O)O)c1ccc(Cl)c(F)c1` (stereo not drawn) [penicillin44], the “PPB (fb)” value under setting [3] is given as 0.83.
Regarding `CCN(CC)CCNC(=O)c1ccc(NC(C)=O)cc1` [Acecainide (N-acetylprocainamide)], the “PPB (fb)” value under setting [2] was 0.1.
Consider `COc1cc2nc(N3CCN(C(=O)C4CCCO4)CC3)nc(N)c2cc1OC` (stereo not drawn) [Terazosin], for which the “PPB (fb)” value under setting [3] is on record as 0.91.
In the case of `OCCOCCN1CCN(C2=Nc3ccccc3Sc3ccccc32)CC1` [quetiapine], the “PPB (fb)” value under setting [3] is 0.83.
Regarding `CC1(C)SC2C(NC(=O)C(Cl)c3ccccc3)C(=O)N2C1C(=O)O` (stereo not drawn) [penicillin22], the “PPB (fb)” value under setting [3] is given as 0.78.
In the case of `CC(C)(C)NC(=O)[C@H]1CC[C@H]2[C@@H]3CC=C4C=C(C(=O)O)CC[C@]4(C)[C@H]3CC[C@]12C` [Epristeride], the “PPB (fb)” value under setting [2] is 0.97.
`C[C@@H]1O[C@@H](O[C@H]2C[C@@H](O)[C@]3(CO)[C@H]4[C@H](O)C[C@]5(C)[C@@H](C6=CC(=O)OC6)CC[C@]5(O)[C@@H]4CC[C@]3(O)C2)[C@H](O)[C@H](O)[C@H]1O` [ouabain]: the “PPB (fb)” value (plasma) is listed as 0.
Turning to `C[C@](N)(Cc1ccc(O)c(O)c1)C(=O)O` [Methyldopa], under setting [1], the “PPB (fb)” value is recorded as 0.13.
With `CCOC(=O)C1(c2ccccc2)CCN(C)CC1` [Meperidine], under “plasma”, the “PPB (fb)” value is given as 0.58.
For `CC(C)(C)NCC(O)c1ccc(O)c(CO)c1` (stereo not drawn) [Albuterol (salbutamol)], the “PPB (fb)” value under setting [2] is given as 0.09.
For the compound `CCCC(=O)N1CCCN(c2nc(N)c3cc(OC)c(OC)cc3n2)CC1` [Bunazosin], under setting [1], the “PPB (fb)” value was 0.95.
For `Cc1nnc2n1-c1ccc(Cl)cc1C(c1ccccc1Cl)=NC2` [Triazolam], the “PPB (fb)” value (plasma) is 0.89.
Regarding `CO/N=C(\C(=O)N[C@@H]1C(=O)N2C(C(=O)O)=C(COC(C)=O)CS[C@H]12)c1csc(N)n1` [Cefotaxime], the “PPB (fb)” value under setting [1] is on record as 0.38.
As for `CCCCCCCN(CC)CCCC(O)c1ccc(NS(C)(=O)=O)cc1` (stereo not drawn) [Ibutilide], under setting [2], the “PPB (fb)” value is reported as 0.4.
For the compound `N[C@@H]1CON=C1O` [cycloserine], the “PPB (fb)” value under setting [1] is on record as 0.2.
As to `CC(C(=O)O)c1ccc(C(=O)c2cccs2)cc1` (stereo not drawn) [Suprofen], under setting [3], the “PPB (fb)” value was 0.99.
For the compound salvianolic acid B, the “PPB (fb)” value (plasma) is recorded as 0.75.
In the case of `CN[C@@H](C)[C@@H](O)c1ccccc1` [pseudoephedrine], where the note is “plasma”, the “PPB (fb)” value was 0.
`CNCC[C@@H](Oc1ccccc1C)c1ccccc1` [Atomoxetine]: the “PPB (fb)” value under setting [2] is 0.97.
As for `CO[C@@H]1[C@@H](OC(N)=O)[C@@H](O)[C@H](Oc2ccc3c(O)c(NC(=O)c4ccc(O)c(CC=C(C)C)c4)c(=O)oc3c2C)OC1(C)C` [Novobiocin], the “PPB (fb)” value under setting [3] is 0.9.
As to `COCCNC(=O)CN(CCN(CCN(CC(=O)O)CC(=O)NCCOC)CC(=O)O)CC(=O)O` [Gadoversetamide], the “PPB (fb)” value under setting [2] is given as 0.
Take `COc1cccc(C2(O)CCCCC2CN(C)C)c1` (stereo not drawn) [Tramadol]: for the setting “plasma”, the “PPB (fb)” value is on record as 0.16.
With `CCC(Oc1ccccc1)C(=O)NC1C(=O)N2C1SC(C)(C)C2C(=O)O` (stereo not drawn) [penicillin50], under setting [1], the “PPB (fb)” value is 0.86.
`CC(=O)Nc1ccc(/C=N/NC(N)=S)cc1` [amithiozone]: the “PPB (fb)” value under setting [1] was 0.95.
As for `CN1CCc2cccc3c2[C@H]1Cc1ccc(O)c(O)c1-3` [Apomorphine], under setting [2], the “PPB (fb)” value was 0.94.
In the case of `CCC(=O)OCC(=O)[C@@]1(OC(=O)CC)[C@@H](C)C[C@H]2[C@@H]3CCC4=CC(=O)C=C[C@]4(C)[C@@]3(Cl)[C@@H](O)C[C@@]21C` [Beclomethasone dipropionate], under setting [2], the “PPB (fb)” value was 0.87.
For `CC#C[C@]1(O)CC[C@H]2[C@@H]3CCC4=CC(=O)CCC4=C3[C@@H](c3ccc(N(C)C)cc3)C[C@@]21C` [mifepristone], the “PPB (fb)” value under setting [3] was 0.98.
As to `CC1(C)SC2C(NC(=O)C(F)c3cccc(N)c3)C(=O)N2C1C(=O)O` (stereo not drawn) [penicillin30], under setting [1], the “PPB (fb)” value was 0.26.
In the case of `CCCN(CCC)S(=O)(=O)c1ccc(C(=O)O)cc1` [Probenecid], under setting [1], the “PPB (fb)” value is reported as 0.88.
Regarding Clevidipine, the “PPB (fb)” value (plasma) is listed as 1.
Consider demeclocycline, for which the “PPB (fb)” value (plasma) is 0.54.
As to `CCN(CC)Cc1cc(Nc2ccnc3cc(Cl)ccc23)ccc1O` [amodiaquine], the “PPB (fb)” value under setting [1] is 0.9.
